{"source": "patent EP4755396A1", "about": "“TREATMENT OF P53 GENE MUTATION OR DEFECT NEGATIVE CANCER AND TUMOR PATIENTS” (Ascentawits Pharmaceuticals, Ltd., priority 2023, dated 2025)", "key": {"[1]": {"tested_on": "RAD51 protein in H460 cells", "assay": "WB detection of RAD51 protein amount, degradation and half-life", "format": "cell-based", "conditions": "0.1-1 nM AST-3424, 5 µM Nutlin-3, 5 µM MG-132, 24 hours (Figures 14-17)", "description": "In the first, the second and the third experiments of the effect of AST-3424 in combination with Nutlin-3 on Ser15-p53, Ser20-p53, Total p53, MDM2 and p21 proteins in H460 cells in example 5, the applicant also performed WB detection of RAD51 protein, with the results shown in Figures 14, 15 and 16.\n• 1) H460 cell suspension was added to a 24-well plate, with a cell density of 100000 /well and 995 µL of medium per well. • 2) The cells were cultured overnight in an incubator at 37°C, 5% CO2. • 3) Compound Treatment\nMonotherapy: After 24 hours of cell plating, each well was supplied with 5µL of test compounds at different concentrations: 1% DMSO, 0.1nM AST-3424 and 5 µM Nutlin-3, shaken gently to ensure even mixing, and then placed at 37°C, 5% CO2 in an incubator. After continuing culture for 24 hours, the cells were collected.\nCombination therapy: After 24 hours of cell plating, • Adding 0.1 nM AST-3424 for pre-treatment for 2 hours, and then adding 5 µM Nutlin-3 for co-treatment for 22 hours; • Adding 1% DMSO and 5 µM MG-132 for co-treatment for 24 hours; • Adding 0.1 nM AST-3424 and 5 µM MG-132 for co-treatment for 24 hours; • Adding 5 µM Nutlin-3 and 5 µM MG-132 for co-treatment for 24 hours; • Adding 0.1 nM AST-3424 for pre-treatment for 2 hour, and then adding 5 µM Nutlin-3 for treatment for 16 hours, and then adding 5µM MG-132 for co-treatment for 6 hours. […]"}, "H460 cells": {"tested_on": "H460 cells", "assay": "In vitro cell proliferation inhibition under normoxia (96-well, CTG, 72 hours)", "format": "cell-based, human", "conditions": "for inhibition at 0.025 µM / inhibition at 0.05 µM: NCI-H460, H460 cells; for inhibition at 0.025 µM: RITA 0.025 µM; for inhibition at 0.05 µM: RITA 0.05 µM", "description": "Overview of the experimental process • 1) H460 cell suspension was added to a 96-well plate at 100 µL per well, with a cell density of 2000 /well. • 2) The cells were cultured overnight in an incubator at 37°C, 5% CO2. • 3) Compound Treatment\nMonotherapy: After 24 hours of cell plating, each well was supplied with 99.5 µL of growth medium then added with 0.5µL of test compounds at different concentrations, shaken gently to ensure even mixing, and then placed at 37°C, 5% CO2 in an incubator.\n(§1) Combination therapy: After 24 hours of cell plating, each well was supplied with 99 µL of growth medium then added with 0.5µL of the combined action compound Nutlin-3, shaken gently to ensure even mixing, and then placed in an incubator for 2 hours. Then each well was added with 0.5µL of test compounds at different concentrations, shaken gently to ensure even mixing, and then placed at 37°C, 5% CO2 in an incubator.\n(§2) 4) The cell plate was placed in the incubator for 72 hours.\n(§3) 5) The cell plate to be tested was placed at room temperature to equilibrium for 30 minutes, and 100µL of medium was discarded per well.\n(§4) 6) 25µL of CTG reagent was added to each well, placed at a fast shaker to shake for 2 minutes, and placed at room temperature away from light for 30 minutes.\n(§5) 7) The chemiluminescence signal value was read using a multifunctional microplate reader with a reading time of 1000 ms.\n8) IC50 was calculated with Graph Pad Prism 5 software.\n(§6) • 1) H460 and HPAF-II cell suspensions were added to a 96-well plate at 100 µL per well, with a cell density of 2000 /well and 20000/well, respectively. • 2) The cells were cultured overnight in an incubator at 37°C, 5% CO2. • 3) Compound Treatment\n(§7) Combination therapy: After 24 hours of cell plating, 99 µL of growth medium was supplied to each well. Each well was added with 0.5 µL of Nutlin-3 or RITA, shaken gently to ensure even mixing, and then placed in an incubator for 2 hours. Then each well was added with 0.5µL of test compounds at different concentrations, shaken gently to ensure even mixing, and then placed at 37°C, 5% CO2 in an incubator.\n(§8) Monotherapy: After 24 hours of cell plating, 99.5 µL of growth medium was supplied to each well. Then each well was added with 0.5µL of test compounds at different concentrations, shaken gently to ensure even mixing, and then placed at 37°C, 5% CO2 in an incubator.\n(§9) 7) The chemiluminescence signal value was read using a multifunctional microplate reader with a reading time of 1000 ms. The corresponding inhibition rate data were calculated.\n(§10) • 1) NCI-H460, NCI-H460 P53KO # 1 cell suspensions were added to a 96-well plate at 100 µL per well, with a cell density of 2000 /well. • 2) The cells were cultured overnight in an incubator at 37°C, 5% CO2. • 3) Compound Treatment\nas §1, with “plating,” for “plating, each well was supplied with”, “of” for “of growth”, “medium was supplied to each well. Each well was” for “medium then”, “of” for “of the”, “action compound,” for “action compound Nutlin-3,”\n(§11) 8) The ICso (half maximal inhibitory concentration) values were calculated using GraphPad Prism 5 software."}, "HPAF-II cells": {"tested_on": "HPAF-II cells", "assay": "In vitro cell proliferation inhibition (96-well, CTG, 72 hours)", "format": "cell-based", "conditions": "Homo sapiens, HPAF-II cells, 72 hours; for inhibition at 2.5 µM: RITA 2.5 µM; for inhibition at 5 µM: RITA 5 µM", "description": "as §6, §7, §8, §2, §3, §4, §9"}, "H460 P53 KO #1": {"tested_on": "H460 P53 KO #1", "assay": "In vitro cell proliferation inhibition under normoxia, p53 knockout cells", "format": "cell-based, human", "description": "The p53 CRISPR/Cas9 KO plasmid (human) and p53 HDR plasmid (human) were purchased from Santa Cruz Company to construct H460 P53 KO cell lines, namely p53 knockout (KnockOut) H460 cell lines. Three groups of H460 P53 KO cell lines were constructed with numbers of H460 P53 KO # 1, H460 P53 KO # 7, and H460 P53 KO # 12.\nAfter co-incubation for 15 minutes, they were added dropwise to the culture medium and mixed well.\nAfter 48 h, 2 µg/mL puromycin was added for screening.\nWhen the cell colonies grew to a sufficient size, single colonies were picked and cultured.\nWhen the cell number reached a sufficient quantity, samples were collected for WB identification of the colonies.\nH460 P53 KO cell lines, i.e. H460 P53 KO # 1, H460 P53 KO # 7, H460 P53 KO # 12 cell lines were used in experiments, respectively.\nas §10, §8\nas §1, with “plating,” for “plating, each well was supplied with”, “of” for “of growth”, “medium was supplied to each well. Each well was” for “medium then”, “of” for “of the”, “action compound,” for “action compound Nutlin-3,”\nas §2, §3, §4, §5, §11"}}, "note": "Read-outs that look alike come from different tables or passages of the source. Peptide text beside a SMILES is read from it. * marks the point of attachment. Cbz = O=C(OCc1ccccc1)*", "data": [{"smiles": "CC(C)C[C@@H](C=O)NC(=O)[C@H](CC(C)C)NC(=O)[C@H](CC(C)C)NC(=O)OCc1ccccc1", "note": "[MG-132] (Cbz-Leu-Leu-Leu-aldehyde)", "values": [{"measurement": "RAD51 protein amount (WB)", "setting": "[1]", "result": "reversed the downregulation of RAD51 protein"}]}, {"smiles": "OCc1ccc(-c2ccc(-c3ccc(CO)s3)o2)s1", "note": "[RITA]", "values": [{"measurement": "inhibition at 0.025 µM", "setting": "H460 cells; Homo sapiens, 72 hours, AST 0.5 nM, AST + RITA 0.5+0.025, read-out: Inhibition rate result, experimental group 1", "result": 22.3, "unit": "%"}, {"measurement": "inhibition at 0.05 µM", "setting": "H460 cells; Homo sapiens, 72 hours, AST 0.5 nM, AST + RITA 0.5+0.05, read-out: Inhibition rate result, experimental group 2", "result": 22.4, "unit": "%"}, {"measurement": "inhibition at 0.025 µM", "setting": "H460 cells; Homo sapiens, 72 hours, AST 1.5 nM, AST + RITA 1.5+0.025, read-out: Inhibition rate result, experimental group 3", "result": 22.3, "unit": "%"}, {"measurement": "inhibition at 0.05 µM", "setting": "H460 cells; Homo sapiens, 72 hours, AST 1.5 nM, AST + RITA 1.5+0.05, read-out: Inhibition rate result, experimental group 4", "result": 22.4, "unit": "%"}, {"measurement": "inhibition at 2.5 µM", "setting": "HPAF-II cells; AST 60 nM, AST + RITA 60+2.5, read-out: Inhibition rate, experimental group 1", "result": 2.86, "unit": "%"}, {"measurement": "inhibition at 5 µM", "setting": "HPAF-II cells; AST 60 nM, AST + RITA 60+5, read-out: Inhibition rate, experimental group 2", "result": 5.56, "unit": "%"}, {"measurement": "inhibition at 2.5 µM", "setting": "HPAF-II cells; AST 200 nM, AST + RITA 200+2.5, read-out: Inhibition rate, experimental group 3", "result": 2.86, "unit": "%"}, {"measurement": "inhibition at 5 µM", "setting": "HPAF-II cells; AST 200 nM, AST + RITA 200+5, read-out: Inhibition rate, experimental group 4", "result": 5.56, "unit": "%"}, {"measurement": "inhibition at 2.5 µM", "setting": "HPAF-II cells; AST 1667 nM, AST + RITA 1667+2.5, read-out: Inhibition rate, experimental group 5", "result": 2.86, "unit": "%"}, {"measurement": "inhibition at 5 µM", "setting": "HPAF-II cells; AST 1667 nM, AST + RITA 1667+5, read-out: Inhibition rate, experimental group 6", "result": 5.56, "unit": "%"}, {"measurement": "inhibition at 2.5 µM", "setting": "HPAF-II cells; AST 5000 nM, AST + RITA 5000+2.5, read-out: Inhibition rate, experimental group 7", "result": 2.86, "unit": "%"}, {"measurement": "inhibition at 5 µM", "setting": "HPAF-II cells; AST 5000 nM, AST + RITA 5000+5, read-out: Inhibition rate, experimental group 8", "result": 5.56, "unit": "%"}]}, {"smiles": "CN(C)C(=O)c1cccc(Oc2cc3c(cc2[N+](=O)[O-])OCCC3OP(=O)(N2CC2)N2CC2)c1", "note": "(centres unmarked) [Compound C]", "values": [{"measurement": "IC50", "setting": "H460 cells; Homo sapiens, NCI-H460, 72 h, NCI-H460, normoxia, 72 hours, alone or with 3 µM AST-3021 as labelled (Example 13)", "result": 2.05, "unit": "nM"}, {"measurement": "Ratio, combination therapy/ monotherapy", "setting": "H460 cells; IC50 ratio, NCI-H460, + 3 µM AST-3021 versus alone (Example 13)", "result": 305.37}, {"measurement": "Ratio, Compound C/AST-3424", "setting": "H460 cells; IC50 ratio, NCI-H460, monotherapy", "result": 4.77}, {"measurement": "IC50", "setting": "H460 P53 KO #1; Homo sapiens, NCI-H460, 72 h, NCI-H460 P53KO # 1, normoxia, 72 hours, alone or with 3 µM AST-3021 as labelled (Example 13)", "result": 36.1, "unit": "nM"}, {"measurement": "Ratio, combination therapy/ monotherapy", "setting": "H460 P53 KO #1; IC50 ratio, NCI-H460 P53KO # 1, + 3 µM AST-3021 versus alone (Example 13)", "result": 43.24}, {"measurement": "Ratio, Compound C/AST-3424", "setting": "H460 P53 KO #1; IC50 ratio, NCI-H460 P53KO # 1, monotherapy", "result": 6.62}, {"measurement": "Ratio, knockout / wild", "setting": "H460 P53 KO #1; IC50 ratio, NCI-H460 P53KO # 1 versus NCI-H460, monotherapy (Example 13)", "result": 17.60}]}]}
